Where no end group is shown, it is not given here.

For one data set, the system named is DU145 and PC-3 cells. Kind of data set: Cytotoxicity assay (CCK-8 cell viability). The settings on record: 1 h; for cytotoxicity (in words): increasing concentrations, CCK-8. In kind it is cell-based, human. As to the method:
(§1) Cells were seeded at a density of 1×10^4 per well in a 96-well plate, were grown overnight and were co-incubated at 37°C for 1 h with increasing concentrations of the peptide in 100 µl RPMI 1640 supplemented with 2% FBS. Subsequently, the peptide solution was replaced by 100 µl fresh medium. To determine cell viability, 10 µl CCK-8 was added to the well, and the cultures were incubated for an additional 2–4 h. The absorbance was then measured at 450 nm (with a reference wavelength at 620 nm), and cell viability was calculated as the percentage of the value relative to the absorbance of the cells incubated without peptide. The IC50 values of the peptides were calculated from the respective cell viability curves. Simultaneously, the LIVE/DEAD BacLight bacterial viability kit was used to visualize the cytotoxicity of the peptides. Combined incubation with SYTO 9 (15 µM) and propidium iodide (PI, 2.5 µg/ml) stained the living cells fluorescent green and the dead cells fluorescent red due to their distinct cell membrane permeability.

The test system of the next data set is DU145 tumor cells. Description: Live/Dead staining with SYTO 9 and PI. Format: cell-based, human. The following applies: 5 µM, 45 min, SYTO 9/PI. As to the method:
as §1

In another data set the test system is liver and kidney. The following applies: mouse, in vivo, ip, 15 mg/kg. On the procedure: (§2) All of the protocols used for in vivo experiments were approved by the University Animal Care and Use Committee. Four to six-week-old male BALB/c nu/nu mice were purchased from the University Animal Production Center. Seven million DU145 cells suspended in 200 µl PBS were subcutaneously injected into the left flank region of mice. On day 7–9 post inoculation, the mice were randomized into three groups (n = 5) and intraperitoneally (i.p.) received 15 mg/kg B28Bn(6–14), B28 or an equivalent volume of PBS once daily for 7 consecutive days. Alternatively, the mice intratumorally received 5 mg/kg drug once daily for 5 consecutive days. The tumor volume was calculated as length×width^2×0.5. At the end of i.p. therapy, the animals were sacrificed and the major organs were excised, paraffin-embedded, sectioned, and stained with hematoxylin/eosin (H&E) for the examination of histopathologic architecture. To evaluate the cytotoxicity on tumor cells in vivo, a single dose of 50 µg of peptide in 50 µl of PBS was injected into the tumor graft (200–300 mm^3), according to the method described previously. At 24 h post-injection, the animals were sacrificed, and the tumor tissues were routinely stained with H&E.

Data set [1] concerns DU145 cells. Description: LDH release (Cytotox 96 non-radioactive cytotoxicity assay), necrosis. The settings on record: 5 µM, 1 h. Format: cell-based, human. As to the method: Necrosis was evaluated with the Cytotox 96 non-radioactive cytotoxicity assay kit by detecting the release of lactate dehydrogenase (LDH) from necrotic cells. Ten-thousand cells were plated in a 96-well plate and treated with the peptide in 100 µl of RMPI 1640 supplemented with 2% FBS for 10 min-2 h, followed by LDH detection with 50 µl of culture supernatant from the treated cells, according to the manufacturer’s instruction. The LDH level was presented as the percentage relative to that of cells treated with 0.9% Triton X-100.
(In general: LDH in the medium is a marker of cell lysis.)

Data set [2] relates to tumor cells (PC-3, DU145, MCF-7, MDA-MB-435S). Format: cell-based, human. As to the method:
as §1

For data set [3], the system named is normal cells (HSF, PrSC, SMC, MRC-5). In kind it is cell-based, human. The following applies: 1 h. As to the method: as §1
The next data set relates to DU145 tumor xenografts. Kind of data set: DU145 tumor xenograft model in BALB/c nude mice. Format: in vivo, mouse. On the procedure:
as §2

In data set [4] the test system is DU145 cells. Kind of data set: FITC-Annexin V/PI staining, FACS analysis of apoptosis and necrosis. In kind it is cell-based, human. As to the method: Phosphatidylserine exposed on the outer membrane reflects the early stages of apoptosis and can be detected by FITC-Annexin V and PI staining. The cells were detached and washed with medium. One-hundred and fifty thousand cells were suspended in 300 µl of RMPI 1640 supplemented with 10% FBS and treated with the peptide at the indicated concentration and time points. Then, the cells were subjected to dual staining with FITC-Annexin V and PI, according to the manual. The cells were observed under a fluorescence microscope and subjected to FACS analysis. Cells showing Annexin V−/PI-, Annexin V+/PI-, and Annexin V+/PI+ signals are considered to be living, early stage apoptotic, and either late stage apoptotic or necrotic, respectively. To assess DNA damage during apoptosis, the TUNEL assay was performed in accordance with the manufacturer’s instruction. Briefly, after treatment for 30 min-1 h with the peptide, cells were washed twice with PBS, fixed with 4% paraformaldehyde for 10–15 min at room temperature, permeabilized with 0.1% Triton X-100 for 2 min on ice, incubated in the reaction mixture and observed under a fluorescence microscope. FITC labeled nucleotides incorporated into the nuclei reflects DNA degradation. For investigating the activation of caspases, cells were preincubated with the Pan-caspase inhibitor, Z-VAD-FMK (100 µM), for 2 h before peptide treatment in the cytotoxicity assay. Immunofluorescence staining of caspase-3 was performed by using the Alexa Fluor 488-conjugated antibody against human cleaved caspase-3. The activation of caspase-3 was further verified by using a caspase-3 colorimetric assay kit (Genescript, Nanjing, China) with TNF-related apoptosis-inducing ligand (TRAIL) as a positive control. The activity of caspase-3 was presented as fold of peptide-treated cells vs untreated cells.
On the technique in general: Flow cytometry measures light scatter and fluorescence of single cells or particles in a stream.

`CSCC[C@H](NC(=O)[C@H](CC(C)C)NC(=O)[C@H](Cc1c[nH]cn1)NC(=O)CNC(=O)[C@@H](NC(=O)[C@H](C)NC(=O)[C@H](Cc1c[nH]c2ccccc12)NC(=O)[C@H](CCC(N)=O)NC(=O)[C@@H](N)CC(N)=O)C(C)C)C(N)=O` [Bn(6–14), reference compound]: the “cytotoxicity (in words)” value in the data set with DU145 and PC-3 cells was “no obvious cytotoxicity”.

Turning to “GGLRSLGRKILRAWKKYGNQWAVGHLM-NH2 [B28Bn(6–14)]”, in the data set with DU145 tumor cells, the “dead cells (red fluorescence)” value is recorded as “over 90%”. In the data set with liver and kidney, the “histological damage in liver and kidneys” value is reported as “no obvious histological damage”. For the same compound, the “necrotic cells detected by LDH assay (percentage of max release with 0.9% Triton X-100)” value with DU145 cells [1] was “less than 10%”. In data set [2] (10 µM, 1 h, CCK-8), the “loss of cell viability” value was “over 90%”. Moreover, the IC50 – broadly, the concentration that gives 50% inhibition – was in the range of 1.7 to 3.5 µM in data set [2] (1 h) and 10.8 to 16.8 µM in data set [3]. For the same compound, the “IC50 in tumor cells, times lower than B28” value in data set [2] (IC50 ratio versus unconjugated B28) is “approximately 10 times”. Moreover, the mean tumor volume in the data set on DU145 tumor xenografts (intraperitoneal 15 mg/kg once daily for 7 days, day 30, n = 5, mean±SD, PBS 421±87) is listed as 179±42 mm^3; in the data set with DU145 tumor xenografts (intratumoral 5 mg/kg once daily for 5 days, day 45, n = 5, mean±SD, PBS 1344±286) it was 225±124 mm^3. Further, the “Annexin V+/PI+ cells (necrotic)” value came out at 1.94% with DU145 cells [4] (2.5 µM, 10 min, 0 µM 0.24); 8.84% with DU145 cells [4] (5 µM, 1 min); 16.25% with DU145 cells [4] (5 µM, 5 min); 15.30% with DU145 cells [4] (5 µM, 10 min); 36.88% in the data set on DU145 cells [4] (5 µM, 15 min); 29.93% in the data set with DU145 cells [4] (10 µM, 10 min). The “early apoptotic cells (Annexin V+/PI-)” value in the data set with DU145 cells [4] (2.5 µM, 10 min, 0 µM 3.80) was 18.05%; in the data set with DU145 cells [4] (5 µM, 1 min, 0 min 3.63), 36.99%; in the data set on DU145 cells [4] (5 µM, 5 min), 32.94%; in the data set on DU145 cells [4] (5 µM, 10 min) it was 39.19%; in the data set with DU145 cells [4] (5 µM, 15 min) it was 35.36%; in the data set on DU145 cells [4] (10 µM, 10 min), 43.18%.

For the compound “GGLRSLGRKILRAWKKYGQRLGNQ-NH2 [B28Bn(2–7)]”, in the data set with DU145 and PC-3 cells (10 µM peptide, CCK-8, RPMI 1640 with 2% FBS), the “cytotoxicity / loss of cell viability” value was “less than 40%”. Moreover, the “cytotoxicity (in words)” value in the data set on DU145 and PC-3 cells was “moderate cytotoxicity”.

(Values after paper PMC3581469, “Bombesin Analogue-Mediated Delivery Preferentially Enhances the Cytotoxicity of a Mitochondria-Disrupting Peptide in Tumor Cells” (PLoS ONE, 2013).)
